In ChEMBL document CHEMBL1142777, “Identification of potent type I MetAP inhibitors by simple bioisosteric replacement. Part 1: Synthesis and preliminary SAR studies of thiazole-4-carboxylic acid thiazol-2-ylamide derivatives” (Bioorg Med Chem Lett, 2005):

Tests used:
[1] = biological target: T1, Methionine aminopeptidase (Escherichia coli K-12, UniProt P0AE18); assay: Inhibitory concentration required against Escherichia coli MetAP1 (150 nM)
T1 sequence (P0AE18 whole entry): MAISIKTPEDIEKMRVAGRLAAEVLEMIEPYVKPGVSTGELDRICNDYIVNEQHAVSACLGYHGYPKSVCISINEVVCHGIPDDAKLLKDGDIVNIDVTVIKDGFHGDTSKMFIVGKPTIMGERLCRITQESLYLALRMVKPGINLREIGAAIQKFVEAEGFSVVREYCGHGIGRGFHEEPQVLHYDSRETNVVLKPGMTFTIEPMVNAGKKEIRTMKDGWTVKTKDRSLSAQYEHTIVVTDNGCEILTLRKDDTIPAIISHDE

[2] = biological target: T2, Methionine aminopeptidase 1 (Saccharomyces cerevisiae S288c, UniProt Q01662); assay: Inhibitory concentration required against Saccharomyces cerevisiae MetAP1 (330 nM)
T2 sequence (Q01662 whole entry): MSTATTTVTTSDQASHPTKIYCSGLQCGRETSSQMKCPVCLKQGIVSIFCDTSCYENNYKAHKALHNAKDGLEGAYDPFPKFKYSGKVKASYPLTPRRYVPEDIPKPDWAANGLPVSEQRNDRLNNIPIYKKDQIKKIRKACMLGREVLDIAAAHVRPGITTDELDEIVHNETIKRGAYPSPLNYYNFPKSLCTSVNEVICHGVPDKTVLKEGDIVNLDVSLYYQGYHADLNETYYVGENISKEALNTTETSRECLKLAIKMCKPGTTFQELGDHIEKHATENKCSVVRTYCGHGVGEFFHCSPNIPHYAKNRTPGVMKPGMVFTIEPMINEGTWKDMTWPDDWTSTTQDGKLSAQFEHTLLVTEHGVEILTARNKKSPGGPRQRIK

IC50 [1] | IC50 [2] | SMILES
0.16 µM | 0.98 µM | CCCCCc1scnc1C(=O)Nc1nccs1
0.029 µM | 1.12 µM | O=C(COCc1ccccc1)Nc1scnc1C(=O)Nc1nccs1
76.5 µM | > 100 µM | CCCCCCCCCCCc1scnc1C(=O)Nc1nccs1
 | 0.14 µM | CC(C)=CCC(=O)Nc1cccnc1C(=O)Nc1nccs1
0.1 µM | 0.99 µM | CC(C)Cc1scnc1C(=O)Nc1nccs1
0.092 µM | 1.53 µM | COCC(=O)Nc1scnc1C(=O)Nc1nccs1
0.3 µM | 10.5 µM | CN(C)CC(=O)Nc1scnc1C(=O)Nc1nccs1
0.17 µM | 2.11 µM | CC(C)=CCCC(C)Cc1scnc1C(=O)Nc1nccs1 (stereo not drawn)
0.082 µM | 0.9 µM | O=C(Nc1nccs1)c1ncsc1Cc1ccc(F)cc1Cl
0.089 µM | 0.5 µM | COC(Cc1scnc1C(=O)Nc1nccs1)C(C)C (stereo not drawn)
0.14 µM | 1.45 µM | O=C(CN1CCCCC1)Nc1scnc1C(=O)Nc1nccs1
0.06 µM | 4.62 µM | CC(C)(C)OC(=O)Nc1scnc1C(=O)Nc1nccs1
0.088 µM | 4.91 µM | O=C(O)CC(=O)Nc1scnc1C(=O)Nc1nccs1
0.065 µM | 0.66 µM | O=C(Nc1nccs1)c1ncsc1CCc1ccccc1
0.16 µM | 0.86 µM | O=C(CN1CCCC1)Nc1scnc1C(=O)Nc1nccs1
0.18 µM | 7.64 µM | CCc1scnc1C(=O)Nc1nccs1
0.053 µM |  | O=C(CN1CCCCC1)Nc1cccnc1C(=O)Nc1nccs1
0.17 µM | 3.8 µM | O=C(Nc1nccs1)c1ncsc1Cc1ccccc1
0.11 µM | 2.26 µM | O=C(Nc1nccs1)c1cscn1

IC50 [1] | IC50 [2] | SMILES
0.081 µM | 0.22 µM | CCC(=O)Nc1scnc1C(=O)Nc1nccs1
0.19 µM | 3.32 µM | COc1ccccc1C(=O)Nc1scnc1C(=O)Nc1nccs1
0.042 µM | 6.38 µM | O=C(Nc1nccs1)c1ncsc1NC(=O)C1CC1
0.13 µM |  | C=CCC(=O)Nc1cccnc1C(=O)Nc1nccs1
0.27 µM | 1.83 µM | O=C(Nc1scnc1C(=O)Nc1nccs1)c1cccc(Cl)c1
0.21 µM | 3.41 µM | O=C(Nc1nccs1)c1ncsc1-c1ccccc1
0.054 µM | 2.63 µM | C=CCC(=O)Nc1scnc1C(=O)Nc1nccs1
0.076 µM | 2.65 µM | CC(=O)OCC(=O)Nc1scnc1C(=O)Nc1nccs1
0.074 µM | 0.88 µM | COC(C)Cc1scnc1C(=O)Nc1nccs1 (stereo not drawn)
0.066 µM | 0.67 µM | CCOC(=O)CC(=O)Nc1scnc1C(=O)Nc1nccs1
0.18 µM | 9.82 µM | Cc1scnc1C(=O)Nc1nccs1
0.11 µM | 0.48 µM | O=C(Nc1scnc1C(=O)Nc1nccs1)c1ccc(F)cc1
0.11 µM | 4.71 µM | O=C(CN1CCOCC1)Nc1scnc1C(=O)Nc1nccs1
1.97 µM | 13.2 µM | Nc1scnc1C(=O)Nc1nccs1
0.044 µM | 0.37 µM | C=CC(C)C(=O)Nc1scnc1C(=O)Nc1nccs1 (stereo not drawn)
0.22 µM | 7.2 µM | CC(C)c1scnc1C(=O)Nc1nccs1
0.076 µM | 0.99 µM | O=C(Nc1scnc1C(=O)Nc1nccs1)c1ccccc1F
0.04 µM | 0.25 µM | O=C(Nc1nccs1)c1ncsc1NC(=O)C1CCC1
0.024 µM | 0.13 µM | O=C(Nc1nccs1)c1ncsc1NC(=O)C1CCCC1
